Here are results for eight compounds from ChEMBL document CHEMBL4431366, “Identification of a benzo imidazole thiazole derivative as the specific irreversible inhibitor of protein tyrosine phosphatase” (Bioorg Med Chem Lett, 2016).

Activity calls are given as the source filed them. No cut-off for these calls is given here.

The target of assay [1] is T1, Tyrosine-protein phosphatase non-receptor type 5 (Homo sapiens, UniProt P54829).
T1 sequence (P54829 whole entry): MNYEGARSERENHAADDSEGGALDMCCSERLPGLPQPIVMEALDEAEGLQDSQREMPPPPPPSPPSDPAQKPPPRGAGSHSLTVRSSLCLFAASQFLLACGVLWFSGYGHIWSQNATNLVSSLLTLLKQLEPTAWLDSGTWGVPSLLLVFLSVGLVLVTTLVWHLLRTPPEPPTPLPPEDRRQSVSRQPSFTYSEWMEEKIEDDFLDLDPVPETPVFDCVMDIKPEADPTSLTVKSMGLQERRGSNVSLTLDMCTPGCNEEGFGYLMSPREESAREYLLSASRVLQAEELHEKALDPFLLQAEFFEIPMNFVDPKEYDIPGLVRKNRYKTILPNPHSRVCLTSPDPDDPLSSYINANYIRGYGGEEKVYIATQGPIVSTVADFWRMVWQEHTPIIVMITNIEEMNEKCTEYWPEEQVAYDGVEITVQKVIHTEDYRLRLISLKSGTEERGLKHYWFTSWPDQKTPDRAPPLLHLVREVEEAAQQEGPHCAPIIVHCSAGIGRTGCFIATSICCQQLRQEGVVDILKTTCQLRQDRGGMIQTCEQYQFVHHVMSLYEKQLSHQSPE
Briefly: (§1) Inhibition of N-terminal His-tagged STEP catalytic domain (unknown origin) expressed in Escherichia coli BL21 (DE3) cells using p-nitrophenyl phosphate as substrate.

For assay [2], the target named is T2, Protein phosphatase 1G (Homo sapiens) (UniProt O15355).
T2 sequence (whole entry): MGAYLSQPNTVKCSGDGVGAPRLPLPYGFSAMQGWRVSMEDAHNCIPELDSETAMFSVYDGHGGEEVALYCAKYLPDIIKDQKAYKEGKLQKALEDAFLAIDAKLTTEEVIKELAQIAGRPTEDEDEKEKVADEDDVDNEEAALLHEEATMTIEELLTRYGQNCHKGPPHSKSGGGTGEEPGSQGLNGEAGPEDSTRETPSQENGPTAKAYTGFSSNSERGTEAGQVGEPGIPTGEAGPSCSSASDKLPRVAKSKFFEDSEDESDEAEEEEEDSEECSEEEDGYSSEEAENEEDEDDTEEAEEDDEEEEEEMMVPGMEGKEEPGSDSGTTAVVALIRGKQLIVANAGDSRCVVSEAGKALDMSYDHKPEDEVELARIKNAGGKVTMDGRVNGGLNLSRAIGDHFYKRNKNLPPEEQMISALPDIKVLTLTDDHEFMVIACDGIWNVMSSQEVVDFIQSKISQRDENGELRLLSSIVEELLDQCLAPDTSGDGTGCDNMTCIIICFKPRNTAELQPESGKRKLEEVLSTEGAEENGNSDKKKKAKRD
Briefly: Time-dependent irreversible inhibition of N-terminal His-tagged PPM1G (unknown origin) expressed in Escherichia coli BL21 (DE3) cells at 80 uM preincubated with enzyme followed by p-nitrophenyl phosphate substrate addition.

Assay [3] concerns the target T3, Protein phosphatase 1B (Homo sapiens) (UniProt O75688).
T3 sequence (whole entry): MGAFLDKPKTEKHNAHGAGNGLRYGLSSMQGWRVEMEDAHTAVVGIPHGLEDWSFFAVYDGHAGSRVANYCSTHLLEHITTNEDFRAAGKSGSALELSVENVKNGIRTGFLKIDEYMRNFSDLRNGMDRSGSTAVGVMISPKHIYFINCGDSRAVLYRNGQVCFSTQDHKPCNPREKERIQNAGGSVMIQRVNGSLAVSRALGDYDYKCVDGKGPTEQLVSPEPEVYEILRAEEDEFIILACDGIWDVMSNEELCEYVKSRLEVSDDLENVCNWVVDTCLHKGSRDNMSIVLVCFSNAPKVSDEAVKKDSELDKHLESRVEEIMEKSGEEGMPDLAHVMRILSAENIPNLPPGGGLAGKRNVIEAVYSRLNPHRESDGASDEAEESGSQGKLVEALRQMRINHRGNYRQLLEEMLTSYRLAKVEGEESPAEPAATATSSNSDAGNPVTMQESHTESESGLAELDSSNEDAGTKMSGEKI
Briefly: Time-dependent irreversible inhibition of N-terminal His-tagged PPM1B (unknown origin) expressed in Escherichia coli BL21 (DE3) cells at 80 uM preincubated with enzyme followed by p-nitrophenyl phosphate substrate addition.

In assay [4] the target is T4, Tyrosine-protein phosphatase non-receptor type 1 (Homo sapiens) (UniProt P18031).
T4 sequence (whole entry): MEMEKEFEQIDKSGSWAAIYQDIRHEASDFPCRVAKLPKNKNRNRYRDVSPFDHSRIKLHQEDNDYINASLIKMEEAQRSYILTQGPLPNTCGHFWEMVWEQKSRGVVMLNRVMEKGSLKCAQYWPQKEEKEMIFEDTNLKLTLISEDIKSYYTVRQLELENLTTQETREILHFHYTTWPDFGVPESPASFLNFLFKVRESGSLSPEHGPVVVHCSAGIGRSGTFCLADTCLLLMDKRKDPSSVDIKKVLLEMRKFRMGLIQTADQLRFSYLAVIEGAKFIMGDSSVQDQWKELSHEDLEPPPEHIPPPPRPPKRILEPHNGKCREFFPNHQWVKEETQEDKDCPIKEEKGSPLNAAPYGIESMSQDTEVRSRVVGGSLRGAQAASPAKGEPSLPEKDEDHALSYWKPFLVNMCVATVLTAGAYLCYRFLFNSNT
Briefly: Time-dependent irreversible inhibition of N-terminal His-tagged PTP1B (unknown origin) expressed in Escherichia coli BL21 (DE3) cells preincubated with enzyme followed by p-nitrophenyl phosphate substrate addition.

The target in assay [5] is T5, Tyrosine-protein phosphatase non-receptor type 22 (Homo sapiens) (UniProt Q9Y2R2).
T5 sequence (whole entry): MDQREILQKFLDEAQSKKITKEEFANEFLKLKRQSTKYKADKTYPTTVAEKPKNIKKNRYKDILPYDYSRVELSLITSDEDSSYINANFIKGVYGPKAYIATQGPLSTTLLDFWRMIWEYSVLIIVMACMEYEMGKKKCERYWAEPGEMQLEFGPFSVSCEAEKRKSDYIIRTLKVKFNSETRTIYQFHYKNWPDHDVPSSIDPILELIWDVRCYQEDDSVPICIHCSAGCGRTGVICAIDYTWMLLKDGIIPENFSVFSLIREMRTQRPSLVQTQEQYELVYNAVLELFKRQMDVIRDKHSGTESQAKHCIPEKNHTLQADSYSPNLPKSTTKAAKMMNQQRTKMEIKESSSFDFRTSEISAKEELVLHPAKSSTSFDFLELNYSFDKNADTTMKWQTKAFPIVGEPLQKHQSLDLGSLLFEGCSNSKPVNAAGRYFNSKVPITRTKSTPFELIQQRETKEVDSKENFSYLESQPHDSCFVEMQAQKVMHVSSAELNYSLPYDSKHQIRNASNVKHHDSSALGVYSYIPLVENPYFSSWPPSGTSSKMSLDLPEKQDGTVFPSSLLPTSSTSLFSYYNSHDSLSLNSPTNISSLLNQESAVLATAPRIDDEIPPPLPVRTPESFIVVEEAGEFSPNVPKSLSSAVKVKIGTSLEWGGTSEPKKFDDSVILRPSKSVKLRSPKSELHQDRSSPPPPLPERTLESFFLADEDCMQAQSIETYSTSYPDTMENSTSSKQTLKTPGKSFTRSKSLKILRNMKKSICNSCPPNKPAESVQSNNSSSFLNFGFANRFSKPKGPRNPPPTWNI
Briefly: Time-dependent irreversible inhibition of N-terminal His-tagged LYP (1 to 294 residues) (unknown origin) expressed in Escherichia coli BL21 (DE3) cells preincubated with enzyme followed by p-nitrophenyl phosphate substrate addition.

For assay [6], the target named is T6, Tyrosine-protein phosphatase non-receptor type 5 (Homo sapiens) (UniProt P54829).
T6 sequence (whole entry): T1 sequence (P54829 whole entry)
The assay is described as §1.

For assay [7], the target named is T6, Tyrosine-protein phosphatase non-receptor type 5 (Homo sapiens).
Description: Time-dependent irreversible inhibition of N-terminal His-tagged STEP catalytic domain (unknown origin) expressed in Escherichia coli BL21 (DE3) cells at 100 uM preincubated with enzyme followed by p-nitrophenyl phosphate substrate addition
Another assay concerns Bacteria. Briefly: Time-dependent irreversible inhibition of N-terminal His-tagged bacterial YOPH expressed in Escherichia coli BL21 (DE3) cells preincubated with enzyme followed by p-nitrophenyl phosphate substrate addition.
Assay [8] concerns the target T7, Tyrosine-protein phosphatase non-receptor type 9 (Homo sapiens) (UniProt P43378).
T7 sequence (whole entry): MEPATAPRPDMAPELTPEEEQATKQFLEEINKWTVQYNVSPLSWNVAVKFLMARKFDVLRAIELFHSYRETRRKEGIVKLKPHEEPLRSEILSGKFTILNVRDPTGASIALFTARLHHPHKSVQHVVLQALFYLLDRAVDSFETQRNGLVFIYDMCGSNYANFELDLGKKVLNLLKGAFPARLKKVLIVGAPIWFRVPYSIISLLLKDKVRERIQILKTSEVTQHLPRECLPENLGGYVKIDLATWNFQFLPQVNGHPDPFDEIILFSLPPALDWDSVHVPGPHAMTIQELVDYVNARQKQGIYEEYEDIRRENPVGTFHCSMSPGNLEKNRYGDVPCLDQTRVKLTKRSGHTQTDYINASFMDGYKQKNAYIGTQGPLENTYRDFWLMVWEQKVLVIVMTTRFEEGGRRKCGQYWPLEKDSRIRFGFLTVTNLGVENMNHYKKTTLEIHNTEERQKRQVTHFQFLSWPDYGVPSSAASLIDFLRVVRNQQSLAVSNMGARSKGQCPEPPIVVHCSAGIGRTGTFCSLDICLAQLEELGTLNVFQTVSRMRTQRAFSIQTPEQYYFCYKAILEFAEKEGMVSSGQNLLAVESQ
Briefly: Time-dependent irreversible inhibition of N-terminal His-tagged MEG2 (277 to 583 residues) (unknown origin) expressed in Escherichia coli BL21 (DE3) cells preincubated with enzyme followed by p-nitrophenyl phosphate substrate addition.

Assay [9] has as its target T1, Tyrosine-protein phosphatase non-receptor type 5. Briefly: (§2) Time-dependent irreversible inhibition of N-terminal His-tagged STEP catalytic domain (unknown origin) expressed in Escherichia coli BL21 (DE3) cells preincubated with enzyme followed by p-nitrophenyl phosphate substrate addition.
In assay [10] the target is T6, Tyrosine-protein phosphatase non-receptor type 5 (Homo sapiens). The assay is described as §2.
Assay [11] deals with T8, Protein phosphatase 1A (Homo sapiens) (UniProt P35813).
T8 sequence (whole entry): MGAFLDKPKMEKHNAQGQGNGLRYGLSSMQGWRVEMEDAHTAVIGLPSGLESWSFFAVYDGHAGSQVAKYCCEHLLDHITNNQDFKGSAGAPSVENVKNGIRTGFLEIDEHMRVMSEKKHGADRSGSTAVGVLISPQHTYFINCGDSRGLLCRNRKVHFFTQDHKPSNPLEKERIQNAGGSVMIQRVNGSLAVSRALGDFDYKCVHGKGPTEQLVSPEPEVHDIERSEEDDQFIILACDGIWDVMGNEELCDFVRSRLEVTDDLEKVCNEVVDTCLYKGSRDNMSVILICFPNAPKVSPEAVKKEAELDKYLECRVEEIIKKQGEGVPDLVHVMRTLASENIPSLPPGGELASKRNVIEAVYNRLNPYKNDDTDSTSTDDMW
Briefly: Time-dependent irreversible inhibition of N-terminal His-tagged PPM1A (unknown origin) expressed in Escherichia coli BL21 (DE3) cells at 80 uM preincubated with enzyme followed by p-nitrophenyl phosphate substrate addition.

Take `Cc1ccc([N+](=O)[O-])cc1-c1ccc(/C=c2\sc3nc4ccccc4n3c2=O)o1`: the concentration for half-maximal inhibition (IC50) in [1] was > 300 µM.

In the case of `Cc1cc(/C=c2/sc3nc4ccccc4n3c2=O)c(C)n1-c1cccc(C(=O)O)c1`, the TDI result in [2], in [3], in [7] and in assay [11] was “Active” throughout. Further, the K in [4] came out at 0.0859 min⁻¹; in assay [5] it was 0.0272 min⁻¹; in the assay with Bacteria, 0.0486 min⁻¹; in assay [8] it was 0.0463 min⁻¹; in assay [10] it was 0.0439 min⁻¹. Also, inhibition in [1] was half-maximal at 8.3 µM (IC50). For the same compound, the inhibition result in assay [6] is “Dose-dependent effect”. The compound also returned a Ki in [9] of 21.6 µM. The compound also displayed a Kinact in assay [10] of 0.068 s⁻¹.

On to `Cc1cc2cc(OCC(=O)O)ccc2n1-c1ccc(Cl)cc1`, for which the 50% inhibitory concentration (IC50) in assay [1] is > 300 µM.

Consider `O=C(CSc1nc2cc(Cl)ccc2o1)Nc1ccc(C(=O)O)cc1`, for which the concentration for half-maximal inhibition (IC50) in assay [1] was > 300 µM.

Turning to `O=C(O)c1cc2ccoc2cc(C(=O)O)c1=O`, in [1], the IC50 was > 300 µM.

In turn, `O=C(O)c1ccc(N2C(=O)c3ccc(Br)cc3C2=O)cc1O` showed an IC50 in assay [1] of 273 µM.

For the compound `COc1cc(/C=c2/sc3nc4ccccc4n3c2=O)cc(Cl)c1OCc1cccc(C(=O)O)c1`, the 50% inhibitory concentration (IC50) in assay [1] was > 300 µM.

Turning to `O=C(O)c1cccc(/C=c2/sc3nc4ccccc4n3c2=O)c1`, the concentration for half-maximal inhibition (IC50) in [1] was > 300 µM.
